Data on five molecules can be found in PMC10258454 (Nature, 2021).

The target of data set [1] is T1, AcbK (Actinoplanes sp. SE50/110, UniProt Q8RMD4). Kind of data set: X-ray crystallography, […] Å. The class given is binding. As to conditions: ATP site; MnCl2, acarbose present.
Data set [2] has as its target T1, AcbK. As to conditions: 2 mM ATP as phosphate donor, MgCl2, pH 8, 37 °C.
The target in data set [3] is T2, porcine pancreatic amylase (PPA) (Sus scrofa, UniProt P00690).
T2 sequence (P00690 16-511): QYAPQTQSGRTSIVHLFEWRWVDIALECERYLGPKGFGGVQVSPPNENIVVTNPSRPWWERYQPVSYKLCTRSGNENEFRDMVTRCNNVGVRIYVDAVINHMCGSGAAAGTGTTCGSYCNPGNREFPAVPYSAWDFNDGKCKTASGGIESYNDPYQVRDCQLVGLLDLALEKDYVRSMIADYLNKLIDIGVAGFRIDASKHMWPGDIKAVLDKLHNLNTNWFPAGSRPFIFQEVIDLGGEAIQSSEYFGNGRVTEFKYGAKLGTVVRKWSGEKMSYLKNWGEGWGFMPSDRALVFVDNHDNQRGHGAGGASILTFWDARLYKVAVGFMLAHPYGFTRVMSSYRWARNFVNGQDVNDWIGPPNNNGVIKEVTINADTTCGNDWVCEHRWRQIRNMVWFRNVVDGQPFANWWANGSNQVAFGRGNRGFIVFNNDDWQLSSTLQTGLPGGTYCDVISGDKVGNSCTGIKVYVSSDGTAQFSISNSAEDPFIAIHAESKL
Briefly: colorimetric amylase assay, […] nm. The class given is biochemical. As to conditions: 30 °C.

In data set [4] the target is T3, human salivary amylase (HSA) (Homo sapiens, UniProt P0DUB6).
T3 sequence (P0DUB6 16-511): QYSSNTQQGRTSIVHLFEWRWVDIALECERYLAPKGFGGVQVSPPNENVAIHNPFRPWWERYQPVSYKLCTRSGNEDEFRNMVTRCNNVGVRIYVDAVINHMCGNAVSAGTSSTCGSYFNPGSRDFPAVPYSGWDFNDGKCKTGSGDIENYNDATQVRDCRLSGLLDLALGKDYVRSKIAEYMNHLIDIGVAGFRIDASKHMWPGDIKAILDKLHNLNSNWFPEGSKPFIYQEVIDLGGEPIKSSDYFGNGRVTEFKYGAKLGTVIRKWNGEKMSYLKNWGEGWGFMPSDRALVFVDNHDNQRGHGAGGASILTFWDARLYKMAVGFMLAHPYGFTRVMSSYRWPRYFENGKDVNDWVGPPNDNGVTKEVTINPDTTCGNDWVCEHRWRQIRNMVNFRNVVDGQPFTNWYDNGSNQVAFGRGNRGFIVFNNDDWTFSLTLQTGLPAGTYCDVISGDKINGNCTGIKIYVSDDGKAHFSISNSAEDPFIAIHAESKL
Briefly: colorimetric amylase assay, […] nm. The class given is biochemical. As to conditions: 30 °C.

The data set “crystal structure” concerns the molecule itself. Briefly: crystal structure.

Consider `Nc1ncnc2c1ncn2[C@@H]1O[C@H](COP(=O)(O)OP(=O)(O)NP(=O)(O)O)[C@@H](O)[C@H]1O` [AMP-PNP], for which the “X-ray crystallography, 2.4 Å” value on AcbK [1] is “crystal structure of AcbK bound to acarbose and a non-hydrolysable ATP analogue, adenylyl-imidodiphosphate (AMP-PNP)”.

On to `Nc1ncnc2c1ncn2[C@@H]1O[C@H](COP(=O)(O)OP(=O)(O)OP(=O)(O)O)[C@@H](O)[C@H]1O` [ATP], for which the “HPLC-MS of acarbose phosphorylation” value at AcbK [2] is “we incubated the resulting proteins with ATP and acarbose”.

`CC1OC[C@H]2O[C@H](O[C@H]3[C@H](O)[C@@H](O)[C@@H](O[C@H]4[C@H](O)[C@@H](O)[C@@H](O[C@H]5[C@H](O)[C@@H](O)[C@@H](O[C@H]6[C@H](O)[C@@H](O)[C@@H](O[C@H]7[C@H](O)[C@@H](O)[C@@H](O[C@H]8[C@H](O)[C@@H](O)[C@@H](Oc9ccc([N+](=O)[O-])cc9)O[C@@H]8CO)O[C@@H]7CO)O[C@@H]6CO)O[C@@H]5CO)O[C@@H]4CO)O[C@@H]3CO)[C@H](O)[C@@H](O)[C@@H]2O1` (stereo partly drawn) [ethylidene-pNP-G7]: the “colorimetric amylase assay, 405 nm” value in data set [3] and in data set [4] was “cleavage of an oligosaccharide substrate mimic (ethylidene-pNP-G7)” each time.

B1: AcbK (acarbose kinase of Actinoplanes sp. SE50/110) (enzyme, UniProt Q8RMD4 1-299, looked up)
chain: MSEHTDVLVLGGAGVDTIAYVPELPLPFQDSYVVAAIEPRAGQTGDNVALGLHTLGLRTMHVDVLGDDPEGDLVRAFHTRHGLPFAALPTAAGTKRAVNLVGPDGRRLSLWDGSREAEEDRYPAALIAAHTAHARHVHVCITPPGQHVFGQLNDLPVTVSTDLHNWDGAYEGFEVYAFNADLVFLSATALTDVAATMRRVIDRGRARLVVATDGAHGGSVLVRGETEVRRYAAVAPEAPVVDSNGAGDAFVSGFLFGHLAGEPLETCLRYGAIAGAYACTIPATRAGAIDRAALLRPAA
B1: the stoichiometry N (commonly the number of molecules, sites or subunits per partner or assembly) in “crystal structure” amounted to 2.

B2: Mak1 (microbiome-derived acarbose kinase 1) (enzyme)
chain: MTQADVLVVGGVGVDHIVRVKSLPLPVVDSMMVPPIVTVVGHTGNGVALGVHALGRASAMADVIGDDAEGRLIQDAYSAAGIPITFVTHISGTRRSVNLVTEEGQRMSLYDPRHPFEFIPDPSLWREGIERSRHVHVSIMNWARYALRDAVAAGRSTSTDLHDWDGVADYHKDFAYGADYVFVSAAALRDESGVVADVFARGRAQFVVVMAGSEGARVWRRSDELPLRISPISIPGRPVVDSNGAGDSFVAAFLCHYLDHGDIFGAARAGAVGGAWACGTLGTHTSFVDVETLERLLAR
B2: in “crystal structure”, the “stoichiometry N” value came out at 2.
